{"source": "patent US20110076768A1", "about": "“METHOD FOR DETECTING CARCINOMA AND AGENT FOR SUPPRESSING CARCINOMA” (priority 2008, published 2011)", "system": "miR-34b, miR-132, miR-137, miR-193a, and miR-203 genes in oral squamous-cell carcinoma cell lines", "assay": "Real-time RT-PCR of candidate miRNA gene expression after treatment with demethylating reagent", "type": "cell-based", "text": "The miRNA expression levels were compared in terms of relative value based on the RNU6B expression level as an internal control. Stars represent 21 types of miRNA genes located on or around the CpG islands. […] A bar graph representing each cell line represents a comparison of expression levels in the RT7 cells and in each cell line. […] A bar graph representing each cell line indicates a comparison of expression levels in untreated cells and in treated cells. […] Asterisks (*) represent a frequency of oral squamous-cell carcinoma cell lines in which recovery of candidate miRNA expression (expression levels of more than 1.5-fold) was observed by comparing untreated cells with cells that have been treated with 10 μM 5-aza-dCyd.\nIn order to inspect whether or not expression of these 5 types of miRNA genes was suppressed by DNA methylation, oral squamous-cell carcinoma cell lines in which these 5 types of miRNA genes had not been expressed were treated with 1 μM and 10 μM demethylating reagents (5-aza-dCyd) for 5 days. RNA was extracted from these cell lines and expression of candidate miRNA genes was inspected via real-time RT-PCR (FIG. 1D).", "data": [{"smiles": "Nc1ncn([C@H]2C[C@H](O)[C@@H](CO)O2)c(=O)n1", "note": "[5-aza-dCyd, 5-aza-2′-deoxycytidine]", "values": [{"measurement": "recovery of candidate miRNA gene expression", "setting": "1 μM and 10 μM for 5 days, OSCC cell lines in which the 5 miRNA genes had not been expressed", "result": "expression of these genes was found to be recovered"}, {"measurement": "demethylation of CpG islands near the miRNA genes", "setting": "oral squamous-cell carcinoma cells cultured in the presence of the demethylating reagent", "result": "possible to demethylate such CpG islands"}]}]}
